Assay results: patent publication US6703349B2, “Enhanced herbicide composition” (Valent BioSciences Corporation, priority 2001, dated 2004)

Columns and labels:
[1] = tested on: Pigweed; assay: Greenhouse spray test, phytotoxicity rating on pigweed; assay type: in vivo, Amaranthus retroflexus (red root pigweed); for 24 hour phytotoxicity Rating (1 = least damage, 5 = most): COC 0.25% (v/v); for 9 day phytotoxicity Rating (1 = least damage, 5 = most): COC 0.25% (v/v)
Description: (§1) Ultra pure water was used in preparing solutions. For active ingredients (e.g. lactofen or flumioxazin), the active ingredient was dissolved in a small amount of solvent (dimethyl sulfoxide (DMSO) or 1-methyl-2-pyrrolidone), and then water was added. Spray solutions were used as soon as possible after mixing.
(§2) COC in water was used as the control.
(§3) After spraying, plants were allowed to dry at room temperature (about 25° C.). They were then moved to the greenhouse, and plants were arranged in a randomized complete block experimental design. Plants were evaluated for phytotoxicity/herbicidal effects at 24 hours and 7 to 9 days after spraying, assessing damage according to the following scale:
(§4) 5=100% leaf area affected
(§5) All the data were subject to an analysis of variance, and the mean separations were determined with Duncan's multiple range test at p=0.05.

[2] = tested on: Tobacco; assay: Greenhouse spray test, phytotoxicity/herbicidal effect and re-growth rating on tobacco; assay type: in vivo, Nicotiana tabacum (tobacco); for 8 day phytotoxicity Rating (1 = least damage, 5 = most): COC 0.25% (v/v); for 9 day phytotoxicity Rating (1 = least damage, 5 = most): COC 0.25% (v/v)
Description: as §1, §2, §3, §4
(§6) Plants were rated for re-growth at 7 to 9 days after treatment according to the following scale:
(§7) 2=75% of control regrowth
(§8) 3=50% of control regrowth
as §5

[3] = tested on: Morning glory; assay: Greenhouse spray test, phytotoxicity rating on morning glory; assay type: in vivo; for 24 hour phytotoxicity Rating (1 = least damage, 5 = most): COC 0.25% (v/v)
Description: as §1, §2, §3, §4, §5

[4] = tested on: Soybean; assay: Greenhouse spray test, phytotoxicity/herbicidal effect and re-growth rating on soybean; assay type: in vivo, Glycine max (soybean); for 24 hour phytotoxicity Rating (1 = least damage, 5 = most): COC 0.25% (v/v); for 8 day phytotoxicity Rating (1 = least damage, 5 = most): COC 0.25% (v/v)
Description: as §1, §2, §3, §4, §6, §7, §8, §5

[5] = tested on: Waterhemp; assay: Greenhouse spray test, phytotoxicity/herbicidal effect and re-growth rating on waterhemp; assay type: in vivo, Amaranthus rudis (water hemp)
[6] = tested on: Burley tobacco; assay: Field test, phytotoxicity (percent leaf area affected) on Burley tobacco; assay type: in vivo; settings: Burley tobacco in the field; apparent 1 day after application, persisted until day 7; summary of Table 6
[7] = tested on: Lambsquarter; assay: Greenhouse spray test, phytotoxicity/herbicidal effect and re-growth rating on lambsquarter; assay type: in vivo, Chenopodium album (lambsquarter)
Description: as §1, §2, §3, §4, §6, §7, §8, §5

[8] = tested on: Cocklebur; assay: Greenhouse spray test, phytotoxicity/herbicidal effect and re-growth rating on cocklebur; assay type: in vivo, Xanthrum strumarium (cocklebur)
Description: as §1, §2, §3, §4, §6, §7, §8, §5

[9] = tested on: Giant Foxtail; assay: Greenhouse spray test, phytotoxicity/herbicidal effect and re-growth rating on giant foxtail; assay type: in vivo, Setaria faberi (giant foxtail)
Description: as §1, §2, §3, §4, §6, §7, §8, §5

[10] = Table 4, 24 hour, NaSA 1.6 g/L, Cobra 0.124 mL/L, Flumioxazin […], COC […] (v/v)
[11] = Table 4, 9 day, NaSA 1.6 g/L, Cobra 0.124 mL/L, Flumioxazin […], COC […] (v/v)
[12] = Table 2, 24 hour, NaSA 1.6 g/L, Cobra 0.124 mL/L, Lactofen 0.030 g/L, COC […] (v/v)
[13] = Table 2, 8 day, NaSA 1.6 g/L, Cobra 0.124 mL/L, Lactofen 0.030 g/L, COC […] (v/v)
[14] = Table 1, 8 day, NaSA 1.6 g/L, Cobra 0.124 mL/L, COC […] (v/v)
[15] = added to Cobra, summary of Table 1
[16] = Table 2, 8 day, NaSA 8.0 g/L, COC […] (v/v)

C#CCN1C(=O)COc2cc(F)c(N3C(=O)C4=C(CCCC4)C3=O)cc21 [Flumioxazin, flumioxazin]
24 hour phytotoxicity Rating (1 = least damage, 5 = most) [1, 10]: 4.2
9 day phytotoxicity Rating (1 = least damage, 5 = most) [1, 11]: 5.0
24 hour phytotoxicity Rating (1 = least damage, 5 = most) [2, 10]: 3.7
9 day phytotoxicity Rating (1 = least damage, 5 = most) [2, 11]: 5.0

CCOC(=O)C(C)OC(=O)c1cc(Oc2ccc(C(F)(F)F)cc2Cl)ccc1[N+](=O)[O-] (centres unmarked) [Lactofen, lactofen]
24 hour phytotoxicity Rating (1 = least damage, 5 = most) ([3]; Table 3, 24 hour, NaSA 1.6 g/L, Cobra 0.124 mL/L, Lactofen 0.030 g/L, COC […] (v/v)): 3.3
24 hour phytotoxicity Rating (1 = least damage, 5 = most) [4, 12]: 2.4
8 day new growth rating (1 = healthy new growth, 5 = no new growth) [4, 13]: 2.6
8 day phytotoxicity Rating (1 = least damage, 5 = most) [4, 13]: 2.7
24 hour phytotoxicity Rating (1 = least damage, 5 = most) [2, 12]: 3.1
8 day new growth rating (1 = healthy new growth, 5 = no new growth) [2, 13]: 5.0
8 day phytotoxicity Rating (1 = least damage, 5 = most) [2, 13]: 4.2

O=C([O-])c1ccccc1O.[Na+] [NaSA, sodium salicylate]
Effect of salicylate on herbicidal activity of Cobra (in words) ([3]; added to Cobra, summary of Table 3): increases the herbicidal activity
Effect of salicylate on herbicidal activity of lactofen (in words) ([3]; added to lactofen, summary of Table 3): increases the herbicidal activity
8 day new growth rating (1 = healthy new growth, 5 = no new growth) [5, 14]: 1.0
Synergism of Cobra activity by addition of salicylate (in words) [5, 15]: not
8 day new growth rating (1 = healthy new growth, 5 = no new growth) [4, 14]: 1.2
8 day new growth rating (1 = healthy new growth, 5 = no new growth) [4, 13]: 2.0
8 day new growth rating (1 = healthy new growth, 5 = no new growth) [4, 16]: 4.2
Synergism of Cobra activity by addition of salicylate (in words) [4, 15]: not
Safening: effect of salicylate on herbicide-induced damage (in words) ([4]; summary of Table 1): decrease and delay herbicide-induced damage
Effect of salicylate on Cobra herbicidal activity (in words) ([1]; added to Cobra, effect not statistically significant, summary of Table 4): increased
Effect of salicylate on flumioxazin herbicidal activity (in words) ([1]; added to flumioxazin, effect not statistically significant, summary of Table 4): increased
Effect of addition of salicylate on Phoenix (lactofen) herbicidal activity (in words) [6]: increased
8 day new growth rating (1 = healthy new growth, 5 = no new growth) [7, 14]: 1.0
Synergism of Cobra activity by addition of salicylate (in words) [7, 15]: synergized
8 day new growth rating (1 = healthy new growth, 5 = no new growth) [8, 14]: 1.0
Synergism of Cobra activity by addition of salicylate (in words) [8, 15]: not
8 day new growth rating (1 = healthy new growth, 5 = no new growth) [2, 14]: 1.0
8 day new growth rating (1 = healthy new growth, 5 = no new growth) [2, 13]: 1.2
8 day new growth rating (1 = healthy new growth, 5 = no new growth) [2, 16]: 4.5
Synergism of Cobra activity by addition of salicylate (in words) [2, 15]: synergized
Effect of salicylate on flumioxazin activity (in words) ([2]; added to flumioxazin, summary of Table 4): increase flumioxazin activity
Effect of salicylate on lactofen activity (in words) ([2]; added to lactofen, summary of Table 2): increase lactofen activity
8 day new growth rating (1 = healthy new growth, 5 = no new growth) [9, 14]: 1.0
Synergism of Cobra activity by addition of salicylate (in words) [9, 15]: not
